Tests used:
[1] = system: Myceliopthora thermophila laccase (MtL); test: Laccase MtL treatment of tobacco extract, HPLC analysis of phenolic compounds (peak area); assay type: biochemical; conditions: for Remaining content (% remaining) (peak area relative to the content in the extract): before drying
Method: (§1) The content of phenolic compounds is analysed by HPLC according to the procedure described below: • Liquid chromatographic system: E.g. Shimadzu SCL-6B System Controller, and two LC-6A Liquid Chromatograph (pumps) or Waters model 600 E • Injector: Shimadzu SIL 6B Autoinjector or Waters 715 Ultra Wisp. UV detector: Shimadzu SPD-6A Photodiode Array UV-VIS detector or Waters Model 481 • Software: CLASS LC10 / CLASS-MXA or Maxima 820 • Column: Supelcosil™ LC-18 25 cm x 4.6 mm (Supelco, #5-8298) or µ Bondapack C198 stainless steel column, 30 cm x 4 mm i.d., 10 µm particle size. • Guard column: none or Guard-Pak from Waters packed with the same material. • Temperature: Ambient • Mobile phase flow: 1.3 ml/min • Injection volume: 20µl • Wavelength: 350 nm • Eluent: Binary gradient (linear) mixture of A: KH2PO4 (28.4 g in 2000 ml de-mineralised water) and B: methanol (please see table 1 and figure 1). The eluent is filtered through a 0.45 µm filter and degassed before use.
(§2) Prior to HPLC analysis, the samples were filtered through a 0.45 µm filter or smaller, e.g. a sterile Sartorius Minisart 0.45 µm filter (#16555) or a Millipore Millex-GS 0.22 µm (#SBGS 0 25 SB) to remove the haze/precipitate normally formed during enzyme treatment. Normally, no dilution of the extract/sample was made before HPLC analysis.
For qualitative and semi-quantitative measurements, each of the standards was dissolved in 96% ethanol, and then mixed in a ratio and at a concentration which was within the range in the tobacco extract. For semi-quantification of the phenolic compounds in the tobacco extract, and as a measure of development in concentration of the various compounds contained in the extract, decrease in peak area relative to the peak area before addition of enzyme was used. As a measure of overall efficiency of the process, degree of reduction in total peak area of all peaks (not only the major ones) in the HPLC chromatogram with retention time Rt>3 min was used (named: "All peaks").
Unless otherwise indicated, the tobacco was extracted at a laboratory scale with water according to the following procedure: 1000 ml demineralised water is heated to 45°C. 30 g tobacco (approx. 25 g d.m.) is added and the mixture stirred by a magnetic bar and occasionally with a stick. After 15 minutes the tobacco residue is separated from the tobacco extract by vacuum filtration (Whatman glass micro fibre GF/F 11 cm). The filtered extract is then vacuum filtered at least once more or until it is completely clear. Yield was around 900 ml tobacco extract. […] No buffer was thus included in any of the trials. D.m. content of the extract was approximately 2.1%.
Tobacco extract (typically 50-100 ml) was poured into a glass beaker and a magnetic bar was added. No pH adjustments were made, and no buffer was added. The tobacco extract was heated to and controlled at 55°C during the entire enzyme treatment by means of a heating plate and a thermostat. Intensive submerse aeration was applied by blowing atmospheric air into the extract by means of a metal sinter (metal suction filter normally used for HPLC). The enzyme in question (TvL or PpL) was added to the desired concentration. Shortly after addition of laccase, the colour of the tobacco extract turned dark brown to black, and with time the liquor became turbid and a precipitate formed. The liquor was sampled with intervals for HPLC analysis.
It is obvious, that MtL can also be used to remove the phenolic compounds. It is evident, that using a dosage of MtL of approximately 0.63 µg/ml, longer processing time is needed compared to using a dosage of 6.3 µg/ml to obtain the same degree of reduction of the phenolic compounds, and that almost complete removal can be obtained with a dosage of approximately 0.63 µg/ml.
Enzyme treatment: MtL enzyme was added at various concentrations in the range 2.5 µg/ml - 6.3 µg/ml. A fixed processing time of 20 minutes was used. […]

[2] = system: Myceliopthora thermophila laccase (MtL); test: MtL treatment of tobacco extract, quantitative HPLC of chlorogenic acid, rutin and scopoletin; assay type: biochemical; conditions: detection limit CA 2.43, R 1.55, S 0.50 µg/ml
Method: as §1, §2
For quantitative measurements the following standards were made in the extracting solution: Chlorogenic acid: 20 mg/ml; Scopoletin: 1 mg/ml; Rutin: 0.75 mg/ml.
The mixture was intensely aerated during the reaction time.
"Raw tobacco" was extracted according to the procedure described in Example 8. […] After enzyme treatment, bentonite was added at a concentration of 1 g/L at the temperature of the extract after the laccase treatment (50°C) for 10 minutes. The slurry was clarified at a flow rate of 1 L/min using a continuous centrifuge. The enzyme treated and clarified extract was then concentrated 40 fold by means of reverse osmosis and evaporation. The concentrate was then recombined with the "tobacco residue" by spraying back the extract onto the tobacco residue, and finally dried, resulting in "recombined tobacco material".
Samples of tobacco before and after extraction and recombination with the tobacco extract was analysed for nicotine, reducing sugars, total sugars by means of an Auto Analyzer according to the method previously described, and analysed for chlorogenic acid, rutin, and scopoletin by means of HPLC according the method previously described. The tobacco extract before and after MtL and bentonite treatment was analysed for chlorogenic acid, rutin, and scopoletin by means of HPLC according the method previously described.

[3] = 5 min, 52.0 °C, 4.1 µg/ml MtL, 3.0 kg/100 litre scale
[4] = 5 minutes, 56.2 °C, MtL, 6.0 kg/200 litre scale
[5] = 10 min, 50.3 °C, 4.1 µg/ml MtL, 3.0 kg/100 litre scale
[6] = 10 minutes, 55.8 °C, MtL, 6.0 kg/200 litre scale
[7] = 15 min, 48.8 °C, 4.1 µg/ml MtL, 3.0 kg/100 litre scale
[8] = 15 minutes, 55.2 °C, MtL, 6.0 kg/200 litre scale
[9] = 20 min, 47.4 °C, 4.1 µg/ml MtL, 3.0 kg/100 litre scale
[10] = 20 minutes, 54.5 °C, MtL, 6.0 kg/200 litre scale
[11] = 30 min, 45.0 °C, 4.1 µg/ml MtL, 3.0 kg/100 litre scale
[12] = 30 minutes, 53.5 °C, MtL, 6.0 kg/200 litre scale
[13] = 45 min, 41.9 °C, 4.1 µg/ml MtL, 3.0 kg/100 litre scale
[14] = 45 minutes, 52.2 °C, MtL, 6.0 kg/200 litre scale
[15] = 60 min, 39.1 °C, 4.1 µg/ml MtL, 3.0 kg/100 litre scale
[16] = 60 minutes, 51.0 °C, MtL, 6.0 kg/200 litre scale
[17] = Extract after MtL treatment, 4.1 µg/ml MtL, 20 minutes at 55°C, intense aeration
[18] = Extract after MtL- and bentonite treatment and separation by centrifugation, 4.1 µg/ml MtL 20 minutes at 55°C, bentonite 1 g/L 10 minutes at 50°C

Compound	Content in tobacco extract during MtL treatment [2, 3]	Content in tobacco extract during MtL treatment [2, 4]	Content in tobacco extract during MtL treatment [2, 5]	Content in tobacco extract during MtL treatment [2, 6]	Content in tobacco extract during MtL treatment [2, 7]	Content in tobacco extract during MtL treatment [2, 8]	Content in tobacco extract during MtL treatment [2, 9]	Content in tobacco extract during MtL treatment [2, 10]	Content in tobacco extract during MtL treatment [2, 11]	Content in tobacco extract during MtL treatment [2, 12]	Content in tobacco extract during MtL treatment [2, 13]	Content in tobacco extract during MtL treatment [2, 14]	Content in tobacco extract during MtL treatment [2, 15]	Content in tobacco extract during MtL treatment [2, 16]	phenolic compound content of tobacco extract [2, 17]	phenolic compound content of tobacco extract [2, 18]	other results
COc1cc2ccc(=O)oc2cc1O [S, 7-Hydroxy-6-methoxy-2H-1-benzopyran-2-one]	0.0063 mg/mL	0.0101 mg/mL	0.0027 mg/mL	0.0090 mg/mL	0.0014 mg/mL	0.0078 mg/mL	0.0010 mg/mL	0.0054 mg/mL	0.0010 mg/mL	0.0043 mg/mL	0.0010 mg/mL	0.0020 mg/mL	0.0010 mg/mL	0.0019 mg/mL	0.0047 mg/mL	0.0017 mg/mL	Residual amount (% remaining) (peak area) ([1]; 0 % pO2, 3.8 µg/ml MtL for 20 minutes at pH 5.4 and 55°C): 100%; Residual amount (% remaining) (peak area) ([1]; 2.5 µg MtL /ml, 20 minutes at pH 5.4 and 55°C, intensive submerse aeration): 97%; Residual amount (% remaining) (peak area) ([1]; 3.8 µg MtL /ml, 20 minutes at pH 5.4 and 55°C, intensive submerse aeration): 69%; Residual amount (% remaining) (peak area) ([1]; 6.3 µg MtL /ml, 20 minutes at pH 5.4 and 55°C, intensive submerse aeration): 52%; Residual amount (% remaining) (peak area) ([1]; 30 % pO2, 3.8 µg/ml MtL for 20 minutes at pH 5.4 and 55°C): 75%; Residual amount (% remaining) (peak area) ([1]; 50 % pO2, 3.8 µg/ml MtL for 20 minutes at pH 5.4 and 55°C): 59%; Residual amount (% remaining) (peak area) ([1]; 90 % pO2, 3.8 µg/ml MtL for 20 minutes at pH 5.4 and 55°C): 45%; % Remaining (peak area) after various treatment times ([1]; 10 min, approx. 6.3 µg/ml MtL at pH 5.4 and 55°C, intensive submerse aeration): 78%; % Remaining (peak area) after various treatment times ([1]; 20 min, approx. 6.3 µg/ml MtL at pH 5.4 and 55°C, intensive submerse aeration): 52%; % Remaining (peak area) after various treatment times ([1]; 67 min, approx. 0.63 µg/ml MtL at pH 5.4 and 55°C, intensive submerse aeration): 90%; % Remaining (peak area) after various treatment times ([1]; 150 min, approx. 0.63 µg/ml MtL at pH 5.4 and 55°C, intensive submerse aeration): 76%; Remaining content (% remaining) (peak area relative to the content in the extract) ([1]; Sample 4 enzyme treated extract after separation from precipitate, approximately 7.5 µg/ml MtL, 30 minutes, 53-56°C, pH 5.5): 47%; Remaining content (% remaining) (peak area relative to the content in the extract) ([1]; Sample 6 enzyme and bentonite treated extract separated from precipitate and bentonite, approximately 7.5 µg/ml MtL 30 minutes, then bentonite 15 minutes at 50-55°C): 44%
O=C(C=Cc1ccc(O)c(O)c1)OC1CC(O)(C(=O)O)CC(O)C1O (stereo not drawn) [CA, 3-[[3-(3,4-Dihydroxyphenyl)-1-oxo-2-propenyl]oxy]1,4,5-trihydroxycyclohexanecarboxylic acid]	0.036 mg/mL	0.0166 mg/mL	BDL	0.0138 mg/mL	BDL	BDL	BDL	BDL	BDL	BDL	BDL	BDL	BDL	BDL	BDL	BDL	

Source: patent EP1094724B1, “USE OF A PHENOL OXIDISING ENZYME IN THE TREATMENT OF TOBACCO” (priority 1998, dated 2000)
